Source: US20170029841A1, “METHODS AND COMPOSITIONS FOR SELECTIVE REGULATION OF PROTEIN EXPRESSION” (priority 2015, published 2017)

What was measured:
[1] = system: maize tissue pools (tassel, ear, leaf, root, stem); experiment: siRNA profiling microarray assay of mts-siRNA sequences across maize tissues; settings: for 01DKD2 V8-V9 Tassel relative signal value: germplasm 01DKD2, V8-V9 tassel; for 01DKD2 V10-V12 Tassel relative signal value: germplasm 01DKD2, V10-V12 tassel; for 01DKD2 Other Tissue relative signal value: germplasm 01DKD2, combined signals from other tissue; for LH244 V8-V9 Tassel relative signal value: germplasm LH244, V8-V9 tassel; for LH244 V10-V12 Tassel relative signal value: germplasm LH244, V10-V12 tassel; for LH244 Other Tissue relative signal value: germplasm LH244, combined signals from other tissue
In short: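 Total RNA from LH244 or 01DKD2 inbred maize tissue pools hybridized to microfluidic chips with triplicate complementary probes for 1,200 mts-siRNAs. Signals background-subtracted and normalized, reported as relative values with standard error. Differential expression by t-test, p<0.05.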

[2] = system: transgenic maize R0 plants (double copy events); experiment: R0 plant greenhouse glyphosate spray: vegetative tolerance and induced male sterility; format: in vivo; settings: for % Vegetative Tolerant / % Completely Male-sterile / % No Pollen: vector configuration A; for % Vegetative Tolerant: glyphosate 0.75 lb ae/acre at V5 then V8, <=10% injury 7 days after V5 spray; for % Completely Male-sterile: no anther extrusion up to S90+12 after V8 glyphosate; for % No Pollen: no viable pollen by Alexandar staining
Description: Transformation vectors containing the recombinant DNA constructs were used with an Agrobacterium-based transformation method and maize immature embryos and techniques known in the art. Leaf samples of R0 plants were collected and molecular analysis was conducted to select transgenic plants containing a single copy (one insertion) or a double copy (two independent insertions) of the recombinant DNA construct and no presence of vector backbone. Single copy events were not sprayed with glyphosate and were selfed and advanced for R1 seed collection, while double copy events were used for R0 glyphosate spray to assess vegetative tolerance and induced male sterility. Transgenic plants that were not sprayed with glyphosate had normal anthesis, normal pollen shedding, and normal pollen development as determined by Alexandar staining and microscopic observation.
Double copy R0 events were used in testing to approximate a single copy homozygous event. Plants were sprayed with glyphosate at two different growth stages to determine if the presence of the mts-siRNA target element in the recombinant DNA construct provided vegetative glyphosate tolerance and glyphosate-induced tassel sterility. The plants were sprayed in a greenhouse with 1× glyphosate (0.75 lb ae/acre) applied at the V5 stage followed by 1× glyphosate (0.75 lb ae/acre) applied at the V8 stage. Seven days after the V5 stage glyphosate application, plants were scored for vegetative injury with scores of ≦10% injury considered as showing vegetative glyphosate tolerance (% Vegetative Tolerant). Male sterility was measured in two ways. […] Anthers were then collected and dissected to microscopically observe pollen development. Anthers for each event were tested for no viable pollen grains produced as detected by Alexandar staining under microscopic observation and scored as not producing any viable pollen (% No Pollen). In plants not sprayed with glyphosate, tassel development, anther extrusion, and pollen development were normal.
The mts-siRNA target elements were tested in multiple transformation vector configurations. Each transformation vector was used to produce multiple R0 plants with each R0 plant representing a unique transgenic event made using the same transformation vector. Data for three different transformation vector configurations are provided as Tables 11 and 12.

For “SEQ ID NO: 79: mts-siRNA sequence aligning to cDNA SEQ ID NO: 22 (CAAGGCAAGAAGGTGCTTGTTGTCC; expressed or natural sequence)”, the “01DKD2 V8-V9 Tassel relative signal value” [1] was 5, the “01DKD2 V10-V12 Tassel relative signal value” [1] was 290.5 and the “01DKD2 Other Tissue relative signal value” [1] was 2. For the same molecule, the “LH244 V8-V9 Tassel relative signal value” [1] was 197.5, the “LH244 V10-V12 Tassel relative signal value” [1] was 269.3 and the “LH244 Other Tissue relative signal value” [1] was 1.9.

With “SEQ ID NO: 80: mts-siRNA sequence aligning to cDNA SEQ ID NO: 22 (CATCAACGACTACAACGGTGAA; expressed or natural sequence)” the “01DKD2 V8-V9 Tassel relative signal value” [1] was 2.5, the “01DKD2 V10-V12 Tassel relative signal value” [1] was 230 and the “01DKD2 Other Tissue relative signal value” [1] was 0.5. The “LH244 V8-V9 Tassel relative signal value” [1] was 138, the “LH244 V10-V12 Tassel relative signal value” [1] was 383.3 and the “LH244 Other Tissue relative signal value” [1] was 0.7.

With “SEQ ID NO: 81: mts-siRNA sequence aligning to cDNA SEQ ID NO: 22 (ACCATCAACGACTACAACGGTGAA; expressed or natural sequence)” the “01DKD2 V8-V9 Tassel relative signal value” [1] was 1, the “01DKD2 V10-V12 Tassel relative signal value” [1] was 320 and the “01DKD2 Other Tissue relative signal value” [1] was 0. The “LH244 V8-V9 Tassel relative signal value” [1] was 207, the “LH244 V10-V12 Tassel relative signal value” [1] was 470.3 and the “LH244 Other Tissue relative signal value” [1] was 1.6.

“SEQ ID NO: 82: mts-siRNA sequence aligning to cDNA SEQ ID NO: 22 (AGGCCTCCCTTCCCTATGGTAGCC; expressed or natural sequence)” was tested, and the “01DKD2 V8-V9 Tassel relative signal value” [1] was 71.5, the “01DKD2 V10-V12 Tassel relative signal value” [1] was 211 and the “01DKD2 Other Tissue relative signal value” [1] was 54.8. The “LH244 V8-V9 Tassel relative signal value” [1] was 95.5, the “LH244 V10-V12 Tassel relative signal value” [1] was 137 and the “LH244 Other Tissue relative signal value” [1] was 217.4.

For “SEQ ID NO: 83: mts-siRNA sequence aligning to cDNA SEQ ID NO: 22 (CAAGGCAAGAAGGTGCTT; expressed or natural sequence)”, the “01DKD2 V8-V9 Tassel relative signal value” [1] was 2, the “01DKD2 V10-V12 Tassel relative signal value” [1] was 253.5 and the “01DKD2 Other Tissue relative signal value” [1] was 1.5. The “LH244 V8-V9 Tassel relative signal value” [1] was 173, the “LH244 V10-V12 Tassel relative signal value” [1] was 303 and the “LH244 Other Tissue relative signal value” [1] was 2.5.

With “SEQ ID NO: 84: mts-siRNA sequence aligning to cDNA SEQ ID NO: 22 (AAGAAGGTGCTTGTTGTC; expressed or natural sequence)” the “01DKD2 V8-V9 Tassel relative signal value” [1] was 0, the “01DKD2 V10-V12 Tassel relative signal value” [1] was 20 and the “01DKD2 Other Tissue relative signal value” [1] was 1. For the same molecule, the “LH244 V8-V9 Tassel relative signal value” [1] was 13, the “LH244 V10-V12 Tassel relative signal value” [1] was 35.7 and the “LH244 Other Tissue relative signal value” [1] was 4.4.

For “SEQ ID NO: 85: mts-siRNA sequence aligning to cDNA SEQ ID NO: 22 (CAAGGCAAGAAGGTGCTTGTTGT; expressed or natural sequence)”, the “01DKD2 V8-V9 Tassel relative signal value” [1] was 2.5, the “01DKD2 V10-V12 Tassel relative signal value” [1] was 246 and the “01DKD2 Other Tissue relative signal value” [1] was 2.5. The “LH244 V8-V9 Tassel relative signal value” [1] was 184, the “LH244 V10-V12 Tassel relative signal value” [1] was 310 and the “LH244 Other Tissue relative signal value” [1] was 2.8.

In the case of “SEQ ID NO: 86: mts-siRNA sequence aligning to cDNA SEQ ID NO: 22 (CAAGGCAAGAAGGTGCTTGTTGTC; expressed or natural sequence)”, the “01DKD2 V8-V9 Tassel relative signal value” [1] is reported as 3, the “01DKD2 V10-V12 Tassel relative signal value” [1] is reported as 256.5 and the “01DKD2 Other Tissue relative signal value” [1] is reported as 3. The “LH244 V8-V9 Tassel relative signal value” [1] was 173.5, the “LH244 V10-V12 Tassel relative signal value” [1] was 241.7 and the “LH244 Other Tissue relative signal value” [1] was 2.4.

For “SEQ ID NO: 87: mts-siRNA sequence aligning to cDNA SEQ ID NO: 22 (ACCAAGGATGTCGTCACCACCAAT; expressed or natural sequence)”, the “01DKD2 V8-V9 Tassel relative signal value” [1] was 25, the “01DKD2 V10-V12 Tassel relative signal value” [1] was 91.5 and the “01DKD2 Other Tissue relative signal value” [1] was 2.5. The “LH244 V8-V9 Tassel relative signal value” [1] was 56, the “LH244 V10-V12 Tassel relative signal value” [1] was 104 and the “LH244 Other Tissue relative signal value” [1] was 4.7.

B1: SEQ ID NO: 14: recombinant mts-siRNA target element sequence (nucleic acid)
DNA: CCCAACGTGCATATCGCCATCCTCTGCTACGAGGGAATGTCATTGGTCGATGAGATGAGGGTGAATCGGATGTTGAGGTGGCACGATAGTTAAGGCGCAAGGGTAT
modifications: chemistry not fully specified; the letters are possibly those of the target site
For B1, the “% Vegetative Tolerant” value ([2]; listed as 14) was 90%, the “% Completely Male-sterile” value [2] was “none” and the “% Completely Male-sterile” value ([2]; listed as 14) was 0%. For the same molecule, the “% No Pollen” value [2] was 0%.

B2: SEQ ID NO: 13: recombinant mts-siRNA target element sequence (nucleic acid)
DNA: ACGTGATAACTTCTATGCTGGCTGTGATTGCTAGTTGAAGAAAAGAATAGATATGGTGACATCAAGTTTCCACTGCGTGACG
modifications: chemistry not fully specified; the letters are possibly those of the target site
B2 was tested, and the “% Vegetative Tolerant” value ([2]; listed as 13) was 100%, the “% Completely Male-sterile” value [2] was “none” and the “% Completely Male-sterile” value ([2]; listed as 13) was 0%. The “% No Pollen” value [2] was 0%.

B3: SEQ ID NO: 2: mts-siRNA target element, single nucleotide change (T69A) relative to SEQ ID NO: 1 (nucleic acid)
DNA: AGACGACGACCGTGCATGGTGATGAATCACAGACGACGAACACGCATGTCGCATCGCCGTCCTCTTTGAATCACACAGCATCACCTTCTTCGCTCTACTACTCCCCCGAGCAATCACCGACCAATAACACCAACCATCAACCTCCCCCGTCGCCGCCGCCTTCACCGTCCTCCCCTCACACCATAGAACTGCAAATGTCCG
B3 was tested, and the “tassel male sterility and pollen by Alexandar stain” value ([2]; double copy R0 events with SEQ ID NO: 2, glyphosate 0.75 lb ae/acre at V5 then V8) was “very few aborted pollen grains or no pollen grains were detected”, the “% Vegetative Tolerant” value ([2]; listed as 2) was 100% and the “% Completely Male-sterile” value ([2]; listed as 2) was 82%. For the same molecule, the “% No Pollen” value [2] was 82%.

B4: SEQ ID NO: 15: recombinant mts-siRNA target element sequence (nucleic acid)
DNA: TCGTCCAAACGTGACCGTGTGGCTAGAAGCAGAGGATGGCGATATGCACGTTATGCTTTCCTAGACTCTCACTGTAGTGG
modifications: chemistry not fully specified; the letters are possibly those of the target site
With B4 the “% Vegetative Tolerant” value ([2]; listed as 15) was 90%, the “% Completely Male-sterile” value [2] was “none” and the “% Completely Male-sterile” value ([2]; listed as 15) was 0%. For the same molecule, the “% No Pollen” value [2] was 0%.

B5: SEQ ID NO: 9: reverse complement of mts-siRNA target element, 99% identity to positions 191 to 490 of cDNA SEQ ID NO: 22 (nucleic acid)
DNA: GGACAACAAGCACCTTCTTGCCTTGCAAGGCCTCCCTTCCCTATGGTAGCCACTTGAGTGGATGACTTCACCTTAAAGCTATTGATTCCCTAAGTGCCAGACATAATAGGCTATACATTCTCTCTGGTGGCAACAATGAGCCATTTTGGTTGGTGTGGTAGTCTATTATTGAGTTTTTTTTGGCACCGTACTCCCATGGAGAGTAGAAGACAAACTCTTCACCGTTGTAGTCGTTGATGGTATTGGTGGTGACGACATCCTTGGTGTGCATGCACTGGTGAGTCACTGTTGTACTCGGCG
modifications: Zea mays
B5 was tested, and the “% Vegetative Tolerant” value ([2]; listed as 9) was 100%, the “% Completely Male-sterile” value ([2]; listed as 9) was 40% and the “% No Pollen” value [2] was 0%.
